Experimental data as given in PMC4222822, “Discovery and Characterization of a Potent and Selective Inhibitor of Aedes aegypti Inward Rectifier Potassium Channels” (PLoS ONE, 2014).

How the values were obtained:
AeKir1 = AeKir1 (Aedes aegypti, UniProt L0EQS9); experiment: Whole-cell patch clamp electrophysiology of T-REx-HEK293-AeKir1 cells; format: cell-based
Procedure: T-REx-HEK293-AeKir1 cells were voltage clamped in the whole-cell configuration of the patch clamp technique after overnight induction with tetracycline (1 µg/ml) essentially as described earlier. Briefly, patch electrodes were pulled from silanized 1.5 mm outer diameter borosilicate microhematocrit tubes using a Narishige PC-10 two-stage puller. Electrode resistance ranged from 3.5 to 5.5 MΩ when filled with the following intracellular solution (in mM): 135 KCl, 2 MgCl2, 1 EGTA, 10 HEPES free acid, 2 Na2ATP (Roche, Indianapolis, IN), pH 7.3, 275 mOsm. The standard bath solution contained (in mM): 135 NaCl, 5 KCl, 2 CaCl2, 1 MgCl2, 5 glucose, 10 HEPES free acid, pH 7.4, 290 mOsm. Whole-cell currents were recorded under voltage-clamp conditions using an Axopatch 200B amplifier (Molecular Devices, Sunnyvale, CA). Electrical connections to the amplifier were made using Ag/AgCl wires and 3 M KCl/agar bridges. Electrophysiological data were collected at 5 kHz and filtered at 1 kHz. Data acquisition and analysis were performed using pClamp 9.2 software (Axon Instruments). All recordings were made at room temperature (20–23°C).

Kir2.2 = target: T1, Kir2.2 (Homo sapiens, UniProt Q14500); experiment: Tl+ flux selectivity assay, Kir2.2; format: cell-based; conditions: n = 2 independent experiments in triplicate, read-out: Inhibition of Tl+ flux (IC50)
T1 construct: expressed in transfected cells
T1 sequence (Q14500 1-433): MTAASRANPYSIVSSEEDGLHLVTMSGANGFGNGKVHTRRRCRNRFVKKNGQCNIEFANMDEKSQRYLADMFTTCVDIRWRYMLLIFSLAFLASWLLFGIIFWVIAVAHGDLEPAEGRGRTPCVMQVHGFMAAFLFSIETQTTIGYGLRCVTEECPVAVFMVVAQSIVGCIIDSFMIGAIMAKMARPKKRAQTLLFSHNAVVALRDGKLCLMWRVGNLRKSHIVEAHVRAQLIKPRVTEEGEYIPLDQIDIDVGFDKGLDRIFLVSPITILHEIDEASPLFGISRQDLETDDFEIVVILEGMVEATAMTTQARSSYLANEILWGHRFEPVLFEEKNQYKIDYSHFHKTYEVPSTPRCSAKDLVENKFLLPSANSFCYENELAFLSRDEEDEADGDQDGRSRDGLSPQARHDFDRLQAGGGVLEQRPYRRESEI
Procedure: [Worded in the source for another target; used here, by the source, with some conditions changed.] Tl^+ flux assays were performed essentially as described previously, [18], [19]. Briefly, stably transfected T-Rex-HEK-293 cells expressing AeKir1 channels were cultured overnight in 384-well plates (20,000 cells/20 µL/well black-walled, clear-bottomed BD PureCoat amine-coated plates (BD, Bedford, MA) with a plating media containing DMEM, 10% dialyzed FBS and 1 µg/mL tetracycline. The next day, the cell culture medium was replaced with a dye-loading solution containing assay buffer (Hanks Balanced Salt Solution with 20 mM HEPES, pH 7.3), 0.01% (w/v) Pluronic F-127 (Life Technologies, Carlsbad, CA), and 1.2 µM of the thallium-sensitive dye Thallos-AM (TEFlabs, Austin, TX). Following 1 hr incubation at room temperature, the dye-loading solution was washed from the plates and replaced with 20 µL/well of assay buffer. […] Tl^+ flux data were analyzed as previously described, [21], [22] using a combination of Excel (Microsoft Corp, Redmond, WA) with XLfit add-in (IDBS, Guildford, Surrey, UK) and OriginPro (OriginLab, Northampton, MA) software. […] The slope of the fluorescence increase beginning 5 s after Tl^+ addition and ending 15 s after Tl^+ addition was calculated.

AeKir1, sequence (L0EQS9 entry or part of it): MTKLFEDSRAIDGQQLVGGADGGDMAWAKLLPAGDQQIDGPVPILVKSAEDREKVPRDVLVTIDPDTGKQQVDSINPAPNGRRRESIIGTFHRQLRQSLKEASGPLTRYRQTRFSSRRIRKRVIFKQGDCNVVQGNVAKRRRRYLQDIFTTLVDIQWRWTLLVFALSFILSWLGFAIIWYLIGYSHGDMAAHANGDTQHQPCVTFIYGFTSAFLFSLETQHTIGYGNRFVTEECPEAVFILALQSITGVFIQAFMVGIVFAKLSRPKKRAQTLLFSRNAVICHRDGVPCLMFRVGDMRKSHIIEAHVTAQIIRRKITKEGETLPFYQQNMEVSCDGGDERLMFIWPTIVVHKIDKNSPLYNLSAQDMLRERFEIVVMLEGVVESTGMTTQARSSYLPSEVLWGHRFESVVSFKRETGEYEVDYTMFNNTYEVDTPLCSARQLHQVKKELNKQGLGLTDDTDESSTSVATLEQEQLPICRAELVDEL

Compound: CCC(=O)N1c2ccc(S(=O)(=O)Nc3cccc(OC)c3)cc2CC1C (stereo not drawn) [VU625, N-(3-methoxyphenyl)-2-methyl-1-propionylindoline-5-sulfonamide]
- Hill coefficient (nH) (AeKir1; 95% CI: 0.8–1.3): 1.02
- IC50 (AeKir1; T-REx-HEK293 cells, 95% CI: 75.4–124.2 nM, n = 4–6): 96.8 nM
- IC50 (Kir2.2): > 30000 nM
